Data reported in patent US20240360415A1, “MUSCLE CELLS DIFFERENTIATED FROM PLURIPOTENT CELLS, METHODS OF PRODUCING SAME AND USE THEREOF” (ALEPH FARMS LTD., priority 2021, published 2024).

Tested on: Bovine pluripotent stem cells (PSCs)
Assay: Immunofluorescence staining of Myosin heavy chain (MF-20 antibody) after total of 11 days of differentiation
Type: cell-based
Conditions: 3D suspension 4 days with factors (CHIR 10 μM; Activin A 20 ng/ml or TGFβ 2 ng/ml), then 7 days 2D serum-free without factors; FIG. 3A-3C
Procedure: Bovine skeletal muscle cells in 2D culture were subjected to immunofluorescence analysis as following: The cells were fixed using 4% Paraformaldehyde (PFA; […] Nuclei were stained using […] of DAPI (Sigma). The imaging was performed using EVOS FL Auto 2 Fluorescent Microscopy (ThermoFisher). Bovine pluripotent stem cells (PSCs) were grown in 2D and/or 3D culture. […] The suspension culture conditions (“3D culture conditions”) include ultra-low adherent (ULA) 6-well plate (Corning) placed at 38.5° C. under 5% CO2 and humidity of >75% under rotation. Medium was refreshed using the skeletal Muscle Precursor medium (without RI) and the formed aggregates were allowed to differentiate for a total of 4 days. The aggregates comprising skeletal muscle committed cells were collected and seeded on in a tissue culture Vitronectin (0.005 mg/ml) pre-coated plate (“2D conditions”) in serum free growth medium. […] Medium was refreshed using the skeletal Muscle Precursor medium (without RI) and the formed aggregates were allowed to differentiate for a total of 4 days. After 4 days, the cells comprising skeletal muscle committed cells were collected and seeded in a 2D culture conditions as described for the aggregate obtained from 3D culture conditions described above.

Cc1cnc(-c2cnc(NCCNc3ccc(C#N)cn3)nc2-c2ccc(Cl)cc2Cl)[nH]1 [CHIR-99021, 6-[[2-[[4-(2,4-Dichlorophenyl)-5-(5-methyl-1H-imidazol-2-yl)-2-pyrimidinyl]amino]ethyl]amino]-3-pyridinecarbonitrile]
Myosin heavy chain positive (skeletal muscle) cells by immunofluorescence: no Myosin positive cells
